This assay concerns the target Serine/threonine-protein phosphatase PP1-alpha catalytic subunit (Homo sapiens) (UniProt P62136). Description: dose-dependent PP1alpha phosphatase inhibition – biochemical, fluorescence, OMFP substrate, set 2, dose response (AID 652207). To be noted: purified PP1alpha, OMFP dephosphorylation fluorescence.

Calls of active or inactive are those of the source.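 Rule for the calls: active = IC50 below 10 µM for blocking the PP1 phosphatase acting on a fluorogenic substrate; inactive = IC50 of 10 µM or more.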

Chain of Serine/threonine-protein phosphatase PP1-alpha catalytic subunit (Homo sapiens) (P62136 whole entry, looked up): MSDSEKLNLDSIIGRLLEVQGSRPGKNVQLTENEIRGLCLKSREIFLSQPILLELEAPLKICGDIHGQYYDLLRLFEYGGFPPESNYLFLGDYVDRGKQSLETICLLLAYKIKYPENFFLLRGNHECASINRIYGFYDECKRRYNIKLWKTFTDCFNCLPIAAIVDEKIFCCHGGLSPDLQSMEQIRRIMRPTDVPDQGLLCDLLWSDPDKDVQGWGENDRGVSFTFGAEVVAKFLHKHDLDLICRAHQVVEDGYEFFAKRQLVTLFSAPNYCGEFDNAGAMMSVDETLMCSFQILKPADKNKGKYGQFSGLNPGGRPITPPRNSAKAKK

A word on the IC50: it is the concentration at which inhibition is half-maximal. As for `CN1CCN(C(c2nccs2)c2cc(Cl)c3cccnc3c2O)CC1` (stereo unspecified), the IC50 is 1.62 µM.
As for `Oc1c(C(c2ccccn2)N2CCOCC2)cc(Cl)c2cccnc12` (stereo unspecified), the figure is 1.32 µM.
Consider `Oc1c(Cc2ccccn2)ccc2cccnc12`, for which the IC50 was 2.64 µM.
Under `CN1CCN(C(c2cccs2)c2cc(Cl)c3cccnc3c2O)CC1` (stereo unspecified) stands 8.42 µM.
With `CN1CCN(Cc2cc(Cl)c3cccnc3c2O)CC1`, the IC50 entry is “inactive”.
As for `CN1CCN(C(c2ccccn2)c2ccc3cccnc3c2O)CC1` (stereo unspecified), the figure is 1.15 µM.

Values taken from PubChem BioAssay AID652207 (The Scripps Research Institute Molecular Screening Center, 2013).
